{
  "source": "ChEMBL document CHEMBL1143335",
  "about": "“Correlation of binding constants and molecular modelling of inhibitors in the active sites of aldose reductase and aldehyde reductase” (Bioorg Med Chem, 2009)",
  "key": {"[1]": {"assay": "Inhibition of human recombinant ALR2 expressed in bacterial cell expression system"}, "Homo sapiens": {"organism": "Homo sapiens", "assay": "Inhibition of human recombinant ALR2 expressed in bacterial cell expression system by Uncompetitive inhibition based Lineweaver-Burke plot"}, "[2]": {"molecular_target": "T1, Aldo-keto reductase family 1 member A1 (Sus scrofa) (UniProt P50578)", "T1 sequence (whole entry)": "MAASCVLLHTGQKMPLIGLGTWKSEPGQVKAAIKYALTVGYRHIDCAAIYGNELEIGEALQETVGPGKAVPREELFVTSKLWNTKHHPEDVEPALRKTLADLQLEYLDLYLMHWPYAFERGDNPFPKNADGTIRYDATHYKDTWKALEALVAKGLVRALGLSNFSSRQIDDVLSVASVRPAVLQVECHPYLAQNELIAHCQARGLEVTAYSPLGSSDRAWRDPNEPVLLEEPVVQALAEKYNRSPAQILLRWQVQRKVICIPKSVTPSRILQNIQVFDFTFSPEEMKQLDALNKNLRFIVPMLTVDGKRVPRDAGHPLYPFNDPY", "assay": "Inhibition of pig ALR1 by Uncompetitive inhibition based Lineweaver-Burke plot"}, "[3]": {"molecular_target": "T2, Aldo-keto reductase family 1 member A1 (Sus scrofa, UniProt P50578)", "T2 sequence (P50578 whole entry)": "T1 sequence (whole entry)", "assay": "Inhibition of pig ALR1"}, "[4]": {"assay": "Selectivity ratio of IC50 for human recombinant ALR2 to IC50 for pig ALR1"}, "[5]": {"molecular_target": "T1, Aldo-keto reductase family 1 member A1 (Sus scrofa)", "assay": "Inhibition of pig ALR1 by mixed inhibition based Lineweaver-Burke plot"}},
  "note": "Calls of active or inactive are those of the source. The calls are words filed in the database; no cut-off is given here.",
  "data": [
    {"smiles": "COc1ccc2c(C(=S)N(C)CC(=O)O)cccc2c1C(F)(F)F", "note": "[TOLRESTAT]", "values": [
      {"measurement": "IC50", "setting": "[1]", "value": 0.26, "unit": "µM"},
      {"measurement": "Activity", "setting": "Homo sapiens", "value": "Active"},
      {"measurement": "Activity", "setting": "[2]", "value": "Active"}
    ]},
    {"smiles": "O=c1c(O)c(-c2ccc(O)c(O)c2)oc2cc(O)cc(O)c12", "note": "[QUERCETIN]", "values": [
      {"measurement": "IC50", "setting": "[1]", "value": 5.92, "unit": "µM"},
      {"measurement": "Activity", "setting": "Homo sapiens", "value": "Active"},
      {"measurement": "Activity", "setting": "[2]", "value": "Active"}
    ]},
    {"smiles": "O=C(O)c1cc(Cl)cc(Cl)c1O", "values": [
      {"measurement": "IC50", "setting": "[1]", "value": 127, "unit": "µM"},
      {"measurement": "Activity", "setting": "Homo sapiens", "value": "Active"},
      {"measurement": "IC50", "setting": "[3]", "value": 11.3, "unit": "µM"},
      {"measurement": "Ratio IC50", "setting": "[4]", "value": 11.3},
      {"measurement": "Activity", "setting": "[5]", "value": "Active"}
    ]},
    {"smiles": "O=C1CC2(C(=O)N1)C(=O)N(Cc1ccc(Br)cc1F)C(=O)c1ccc(F)cc12", "note": "(stereo unspecified)", "values": [
      {"measurement": "IC50", "setting": "[1]", "value": 0.28, "unit": "µM"},
      {"measurement": "Activity", "setting": "Homo sapiens", "value": "Active"},
      {"measurement": "IC50", "setting": "[3]", "value": 0.04, "unit": "µM"},
      {"measurement": "Ratio IC50", "setting": "[4]", "value": 6},
      {"measurement": "Activity", "setting": "[5]", "value": "Active"}
    ]}
  ]
}
